In patent publication US6914045B2, “Glycopeptide antibiotics” (Wyeth Holdings Corporation, priority 2001, dated 2005):
Values after ≈ are worked out from the molar mass of the structure shown.

Key:
Experiment in all cases: in vitro antibacterial evaluation, MIC by broth dilution
Type in all cases: cell-based
Escherichia coli = details: 18 hours at 35° C.
Procedure, shortened: (§1)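 Broth dilution per NCCLS M7-A2 in Mueller-Hinton II medium, inoculum 5×10^5 CFU/mL, antibiotic range 64-0.06 μg/mL. MIC taken as lowest concentration inhibiting growth; Gram-positive panel includes recent clinical isolates resistant to methicillin, penicillin and/or vancomycin.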

Staphylococcus sp. = details: broth dilution, 18 hours at 35° C.
Procedure, shortened: as §1

Enterococcus sp. = details: broth dilution, 18 hours at 35° C.
Procedure, shortened: as §1

Streptococcus sp. = details: broth dilution, 18 hours at 35° C.
Procedure, shortened: as §1

MIC Escherichia coli (ATCC 25922) (Escherichia coli; strain ATCC 25922): 32 µg/mL (≈ 22.8 µM)
MIC Escherichia coli (GC 4559) (Escherichia coli; strain GC 4559): 32 µg/mL (≈ 22.8 µM)
MIC Escherichia coli (GC 4560) (Escherichia coli; strain GC 4560): 2 µg/mL (≈ 1.43 µM)
MIC Staphylococcus aureus (ATCC 29213) (Staphylococcus sp.): 2 µg/mL (≈ 1.43 µM)
MIC Staphylococcus aureus (GC 1131) (Staphylococcus sp.): 2 µg/mL (≈ 1.43 µM)
MIC Staphylococcus aureus (GC 3051) (Staphylococcus sp.): 2 µg/mL (≈ 1.43 µM)
MIC Staphylococcus aureus (GC 3053) (Staphylococcus sp.): 2 µg/mL (≈ 1.43 µM)
MIC Staphylococcus aureus (GC 4541) (Staphylococcus sp.): 2 µg/mL (≈ 1.43 µM)
MIC Staphylococcus aureus (GC 4542) (Staphylococcus sp.): 2 µg/mL (≈ 1.43 µM)
MIC Staphylococcus aureus (GC 4544) (Staphylococcus sp.): 1 µg/mL (≈ 0.713 µM)
MIC Staphylococcus aureus (GC 4545) (Staphylococcus sp.): 2 µg/mL (≈ 1.43 µM)
MIC Staphylococcus aureus (GC 1131) (Staphylococcus sp.; inoculum 5×10^5 CFU/mL, strain GC 1131): 2 µg/mL (≈ 1.43 µM)
MIC Staphylococcus aureus (ATCC 29213) (Staphylococcus sp.; strain ATCC 29213): 2 µg/mL (≈ 1.43 µM)
MIC Staphylococcus aureus (GC 3051) (Staphylococcus sp.; strain GC 3051): 2 µg/mL (≈ 1.43 µM)
MIC Staphylococcus aureus (GC 3053) (Staphylococcus sp.; strain GC 3053): 2 µg/mL (≈ 1.43 µM)
MIC Staphylococcus aureus (GC 4541) (Staphylococcus sp.; strain GC 4541): 2 µg/mL (≈ 1.43 µM)
MIC Staphylococcus aureus (GC 4542) (Staphylococcus sp.; strain GC 4542): 2 µg/mL (≈ 1.43 µM)
MIC Staphylococcus aureus-SMITH (GC 4543) (Staphylococcus sp.; strain GC 4543): 2 µg/mL (≈ 1.43 µM)
MIC Staphylococcus aureus (GC 4544) (Staphylococcus sp.; strain GC 4544): 1 µg/mL (≈ 0.713 µM)
MIC Staphylococcus aureus (GC 4545) (Staphylococcus sp.; strain GC 4545): 2 µg/mL (≈ 1.43 µM)
MIC Coagulase Negative Staphylococcus (GC 4547) (Staphylococcus sp.; strain GC 4547): 2 µg/mL (≈ 1.43 µM)
MIC Coagulase Negative Staphylococcus (GC 4548) (Staphylococcus sp.; strain GC 4548): 1 µg/mL (≈ 0.713 µM)
MIC Coagulase Negative Staphylococcus (GC 4549) (Staphylococcus sp.; strain GC 4549): 1 µg/mL (≈ 0.713 µM)
MIC Coagulase Negative Staphylococcus (GC 4551) (Staphylococcus sp.; strain GC 4551): 2 µg/mL (≈ 1.43 µM)
MIC Coagulase Negative Staphylococcus (GC 6257) (Staphylococcus sp.; strain GC 6257): 1 µg/mL (≈ 0.713 µM)
MIC Staphylococcus aureus-SMITH (GC 4543) (Staphylococcus sp.; strain SMITH GC 4543): 2 µg/mL (≈ 1.43 µM)
MIC Enterococcus avium (GC 4558) (Enterococcus sp.; Enterococcus avium (GC 4558)): 2 µg/mL (≈ 1.43 µM)
MIC Enterococcus faecalis (ATCC 29212) (Enterococcus sp.; Enterococcus faecalis (ATCC 29212)): 2 µg/mL (≈ 1.43 µM)
MIC Enterococcus faecalis (GC 2242) (Enterococcus sp.; Enterococcus faecalis (GC 2242)): 2 µg/mL (≈ 1.43 µM)
MIC Enterococcus faecalis (GC 2691) (Enterococcus sp.; Enterococcus faecalis (GC 2691)): 2 µg/mL (≈ 1.43 µM)
MIC Enterococcus faecalis (GC 3059) (Enterococcus sp.; Enterococcus faecalis (GC 3059)): 2 µg/mL (≈ 1.43 µM)
MIC Enterococcus faecalis (GC 4552) (Enterococcus sp.; Enterococcus faecalis (GC 4552)): 2 µg/mL (≈ 1.43 µM)
MIC Enterococcus faecalis (GC 4553) (Enterococcus sp.; Enterococcus faecalis (GC 4553)): 4 µg/mL (≈ 2.85 µM)
MIC Enterococcus faecalis (GC 4554) (Enterococcus sp.; Enterococcus faecalis (GC 4554)): 2 µg/mL (≈ 1.43 µM)
MIC Enterococcus faecalis (GC 6189) (Enterococcus sp.; Enterococcus faecalis (GC 6189)): 2 µg/mL (≈ 1.43 µM)
MIC Enterococcus faecium (GC 2243) (Enterococcus sp.; Enterococcus faecium (GC 2243)): 2 µg/mL (≈ 1.43 µM)
MIC Enterococcus faecium (GC 4556) (Enterococcus sp.; Enterococcus faecium (GC 4556)): 2 µg/mL (≈ 1.43 µM)
MIC Enterococcus faecium (GC 4557) (Enterococcus sp.; Enterococcus faecium (GC 4557)): 4 µg/mL (≈ 2.85 µM)
MIC Enterococcus faecalis (ATCC 29212) (Enterococcus sp.; strain ATCC 29212): 2 µg/mL (≈ 1.43 µM)
MIC Enterococcus faecalis (GC 2242) (Enterococcus sp.; strain GC 2242): 2 µg/mL (≈ 1.43 µM)
MIC Enterococcus faecium (GC 2243) (Enterococcus sp.; strain GC 2243): 2 µg/mL (≈ 1.43 µM)
MIC Enterococcus faecalis (GC 2691) (Enterococcus sp.; strain GC 2691): 2 µg/mL (≈ 1.43 µM)
MIC Enterococcus faecalis (GC 3059) (Enterococcus sp.; strain GC 3059): 2 µg/mL (≈ 1.43 µM)
MIC Enterococcus faecalis (GC 4552) (Enterococcus sp.; strain GC 4552): 2 µg/mL (≈ 1.43 µM)
MIC Enterococcus faecalis (GC 4553) (Enterococcus sp.; strain GC 4553): 4 µg/mL (≈ 2.85 µM)
MIC Enterococcus faecalis (GC 4554) (Enterococcus sp.; strain GC 4554): 2 µg/mL (≈ 1.43 µM)
MIC Enterococcus faecium (GC 4556) (Enterococcus sp.; strain GC 4556): 2 µg/mL (≈ 1.43 µM)
MIC Enterococcus faecium (GC 4557) (Enterococcus sp.; strain GC 4557): 4 µg/mL (≈ 2.85 µM)
MIC Enterococcus avium (GC 4558) (Enterococcus sp.; strain GC 4558): 2 µg/mL (≈ 1.43 µM)
MIC Enterococcus faecalis (GC 6189) (Enterococcus sp.; strain GC 6189): 2 µg/mL (≈ 1.43 µM)
MIC Streptococcus agalactiae (GC 4564) (Streptococcus sp.; Streptococcus agalactiae (GC 4564)): 0.12 µg/mL (≈ 0.0855 µM)
MIC Streptococcus pneumoniae (ATCC 6301) (Streptococcus sp.; Streptococcus pneumoniae (ATCC 6301)): <0.06 µg/mL
MIC Streptococcus pneumoniae (GC 1894) (Streptococcus sp.; Streptococcus pneumoniae (GC 1894)): <0.06 µg/mL
MIC Streptococcus pneumoniae (GC 4565) (Streptococcus sp.; Streptococcus pneumoniae (GC 4565)): 0.12 µg/mL (≈ 0.0855 µM)
MIC Streptococcus pyogenes (GC 4563) (Streptococcus sp.; Streptococcus pyogenes (GC 4563)): <0.06 µg/mL
MIC Streptococcus pneumoniae (ATCC 6301) (Streptococcus sp.; strain ATCC 6301): <0.06 µg/mL
MIC Streptococcus pneumoniae (GC 1894) (Streptococcus sp.; strain GC 1894): <0.06 µg/mL
MIC Streptococcus pyogenes (GC 4563) (Streptococcus sp.; strain GC 4563): <0.06 µg/mL
MIC Streptococcus agalactiae (GC 4564) (Streptococcus sp.; strain GC 4564): 0.12 µg/mL (≈ 0.0855 µM)
MIC Streptococcus pneumoniae (GC 4565) (Streptococcus sp.; strain GC 4565): 0.12 µg/mL (≈ 0.0855 µM)
SMILES: CC(c1ccccc1)C1NC(=O)CNC(=O)C(CO)NC(=O)C(C(O)C2CNC(=N)N2C2OC(CO)C(O)C(O)C2O)NC(=O)C(C(O)C2CNC(=N)N2)NC(=O)C(Cc2ccc(OC3OC(CO)C(OC4OC5COC(CC6CCCCC6)OC5C(O)C4O)C(O)C3O)cc2)NC1=O (stereo not shown) [Example 122]
MIC Staphylococcus haemolyticus (GC 4546) (Staphylococcus sp.; strain GC 4546): 2 µg/mL (≈ 1.43 µM)
